Measurements from the NIST ThermoML archive (doi:10.1021/acs.jced.9b00726).
Values joined by “and” are separate entries in the source; they are usually repeats but may differ in a detail not shown here. Identical values can stand only once. Numbers after ± are expanded uncertainties.

Experiment: activity coefficient (dimensionless); of the first substance listed, at infinite dilution; xn = mol fraction of the nth substance listed
Conditions: 100 kPa, Liquid, inert gas stripping, x1 = 0

For `CC(=O)CC(C)C` [4-methylpentan-2-one] + O, the activity coefficient (278.15 K) was 239 ± 24, the activity coefficient (288.15 K) was 277 and 287 and the activity coefficient (298.15 K) was 327 ± 30. It also gave an activity coefficient (308.15 K) of 370 ± 34, an activity coefficient (318.15 K) of 405 ± 37 and an activity coefficient (328.15 K) of 410 ± 38.
`CC(=O)C(C)(C)C` [3,3-dimethyl-2-butanone] + O gave an activity coefficient (278.15 K) of 217 ± 20, an activity coefficient (288.15 K) of 272 ± 25 and an activity coefficient (298.15 K) of 321 ± 29. The activity coefficient (308.15 K) was 345 ± 32, the activity coefficient (318.15 K) was 370 ± 34 and the activity coefficient (328.15 K) was 379 ± 35.
For `CCC(=O)CC` [pentan-3-one] + O, the activity coefficient (273.35 K) was 67.9 ± 8.7, the activity coefficient (283.15 K) was 86.9 ± 8.7 and the activity coefficient (288.15 K) was 92.8 ± 8.3. The activity coefficient (293.15 K) was 101 ± 9, the activity coefficient (298.15 K) was 114 and 112 and the activity coefficient (303.15 K) was 118 ± 11. The activity coefficient (308.15 K) was 129 ± 12, the activity coefficient (313.15 K) was 130 ± 12 and the activity coefficient (318.15 K) was 137 and 133. It also gave an activity coefficient (323.15 K) of 142 ± 13 and an activity coefficient (333.15 K) of 148 ± 13.
`CC(=O)C(C)C` [3-methyl-2-butanone] + O showed an activity coefficient (278.15 K) of 64.4 ± 8.2, an activity coefficient (288.15 K) of 72.9 ± 7.2 and an activity coefficient (298.15 K) of 91 ± 8.1. For the same molecule, the activity coefficient (308.15 K) was 102 ± 9.1, the activity coefficient (318.15 K) was 112 ± 9.8 and the activity coefficient (328.15 K) was 119 ± 10.
In the case of `CCCCC(C)=O` [2-hexanone] + O, the activity coefficient (278.15 K) is reported as 257 ± 33, the activity coefficient (288.15 K) is reported as 331 ± 34 and the activity coefficient (298.15 K) is reported as 384 ± 35. The activity coefficient (308.15 K) was 422 ± 39, the activity coefficient (318.15 K) was 471 ± 61 and the activity coefficient (328.15 K) was 456 ± 42.
With `CCCC(C)=O` [pentan-2-one] + O the activity coefficient (273.17 K) was 61.4 ± 6.1, the activity coefficient (278.15 K) was 67.2 ± 6.7 and the activity coefficient (288.15 K) was 78.7 ± 7. The activity coefficient (298.15 K) was 95.9 ± 8.6, the activity coefficient (308.15 K) was 107 ± 9.4 and the activity coefficient (318.15 K) was 121 ± 11. The activity coefficient (328.15 K) was 129 ± 11 and the activity coefficient (333.15 K) was 130 ± 11.
`CCC(=O)C(C)C` [2-methyl-3-pentanone] + O showed an activity coefficient (278.15 K) of 269 ± 58, an activity coefficient (288.15 K) of 329 ± 71 and an activity coefficient (298.15 K) of 391 ± 51. The activity coefficient (308.15 K) was 442 ± 58, the activity coefficient (318.15 K) was 467 ± 61 and the activity coefficient (328.15 K) was 491 ± 64.
Work on `CCCC(=O)CC` [3-hexanone] + O yielded an activity coefficient (278.15 K) of 260 ± 34, an activity coefficient (288.15 K) of 340 ± 44 and an activity coefficient (298.15 K) of 418 ± 43. For the same molecule, the activity coefficient (308.15 K) was 458 ± 42, the activity coefficient (319.15 K) was 515 ± 47 and the activity coefficient (328.15 K) was 524 ± 48.
Molecule `CCC(C)C(C)=O` (stereo unspecified) [3-methyl-2-pentanone] + O has an activity coefficient (278.15 K) of 216 ± 47, an activity coefficient (288.15 K) of 268 ± 58 and an activity coefficient (298.15 K) of 296 ± 48. For the same molecule, the activity coefficient (308.15 K) was 332 ± 43, the activity coefficient (318.15 K) was 358 ± 46 and the activity coefficient (328.15 K) was 380 ± 49.
